Read-outs that look alike come from different tables or passages of the source. A value given as a limit tells only on which side of the number the result lay.

Series [1] in a line: Pharmacokinetics in mice after oral or intravenous dosing. It is filed as in vivo. The protocol: Plasma concentrations were measured by LC-MS/MS. Non-compartmental PK parameters were calculated using Phoenix WinNonlin. Human half-life predictions were derived by allometric scaling for half-life (t1/2): t1/2,human = t1/2,mouse × (Whuman/Wmouse)^0.25, where W = body weight. The exponent 0.25 is commonly used for time-based pharmacokinetic parameters. We assume an average mouse weight of 0.025 kg and an average human weight of 70 kg.

In a further series the target is T1, CIT (Homo sapiens, UniProt O14578).
T1 construct: purchased Eurofins (DiscoverX)
As to the kind of experiment: DiscoverX scanMAX competition binding at 1 µM. The settings on record: 1 μM compound. The procedure:
(§1) A major issue affecting the further development of RUPB-61 is its human-kinome selectivity. To identify its significant off-target liabilities, we quantified its binding affinity for 400 unique human kinases (S4 Fig). The screen consists of binding competitions between the test compound and control ligands for each of the target human kinases.
(§2) Off-target kinase inhibition was assessed using the DiscoverX scanMAX (Eurofins) panel at 1 µM compound concentration. Binding affinities of CIT, ROCK1 and ROCK2 were evaluated using the KdElect assay (Eurofins).

The target in another series is T2, ROCK1 (Homo sapiens, UniProt Q13464).
T2 construct: purchased Eurofins (DiscoverX)
As to the kind of experiment: DiscoverX scanMAX competition binding at 1 µM. The settings on record: 1 μM compound. The procedure:
as §1, §2

The next series addresses T3, ROCK2 (Homo sapiens, UniProt O75116).
T3 construct: purchased Eurofins (DiscoverX)
As to the kind of experiment: DiscoverX scanMAX competition binding at 1 µM. The settings on record: 1 μM compound. The protocol:
as §1, §2

Series [2] deals with mutant P. falciparum parasites carrying a Thr618Gln substitution. The settings on record: cited from earlier work.
The next series has as its system hERG. The settings on record: in vitro; cited from earlier work.
The mark [3] stands for this setting: mouse, plasma, iv, 10 mg/kg, mice, IV 10 mg/kg, average of 3 mice.
[4] abbreviates: mouse, plasma, po, 10 mg/kg, mice, PO 10 mg/kg, average of 3 mice.

T3 sequence (O75116 whole entry): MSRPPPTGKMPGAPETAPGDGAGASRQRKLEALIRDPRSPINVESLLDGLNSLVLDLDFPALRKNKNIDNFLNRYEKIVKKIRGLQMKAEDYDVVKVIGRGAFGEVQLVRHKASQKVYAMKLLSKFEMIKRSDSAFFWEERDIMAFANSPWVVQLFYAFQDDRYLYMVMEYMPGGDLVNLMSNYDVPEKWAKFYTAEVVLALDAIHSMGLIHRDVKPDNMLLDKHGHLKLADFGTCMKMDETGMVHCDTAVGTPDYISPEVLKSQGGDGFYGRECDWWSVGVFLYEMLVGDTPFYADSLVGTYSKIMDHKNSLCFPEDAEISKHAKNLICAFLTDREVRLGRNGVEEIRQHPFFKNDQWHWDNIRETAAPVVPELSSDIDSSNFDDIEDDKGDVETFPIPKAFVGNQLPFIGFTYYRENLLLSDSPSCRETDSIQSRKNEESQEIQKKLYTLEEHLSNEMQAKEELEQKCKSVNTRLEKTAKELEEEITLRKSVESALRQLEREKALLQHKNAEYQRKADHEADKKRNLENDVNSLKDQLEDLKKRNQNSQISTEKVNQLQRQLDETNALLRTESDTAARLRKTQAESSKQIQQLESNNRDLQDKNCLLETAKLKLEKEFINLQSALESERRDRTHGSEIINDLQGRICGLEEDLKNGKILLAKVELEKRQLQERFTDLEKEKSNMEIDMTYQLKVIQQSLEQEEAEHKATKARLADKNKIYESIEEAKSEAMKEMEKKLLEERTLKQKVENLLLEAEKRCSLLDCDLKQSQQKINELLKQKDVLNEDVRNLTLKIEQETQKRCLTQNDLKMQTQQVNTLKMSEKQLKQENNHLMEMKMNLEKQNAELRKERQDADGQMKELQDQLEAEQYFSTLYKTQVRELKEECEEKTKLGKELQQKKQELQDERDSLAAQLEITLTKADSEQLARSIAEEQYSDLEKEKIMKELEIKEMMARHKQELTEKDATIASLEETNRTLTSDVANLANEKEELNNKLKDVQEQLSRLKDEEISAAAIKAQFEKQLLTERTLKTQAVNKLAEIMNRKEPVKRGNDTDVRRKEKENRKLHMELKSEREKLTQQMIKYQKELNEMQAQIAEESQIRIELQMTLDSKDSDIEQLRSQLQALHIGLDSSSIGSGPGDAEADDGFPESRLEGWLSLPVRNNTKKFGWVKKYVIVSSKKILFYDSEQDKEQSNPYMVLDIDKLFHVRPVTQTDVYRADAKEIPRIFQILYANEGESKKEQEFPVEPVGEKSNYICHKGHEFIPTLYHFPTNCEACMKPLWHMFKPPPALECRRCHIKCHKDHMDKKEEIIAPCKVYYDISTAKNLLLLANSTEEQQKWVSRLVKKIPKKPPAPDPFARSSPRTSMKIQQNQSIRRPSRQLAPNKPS
T1 sequence (O14578 whole entry): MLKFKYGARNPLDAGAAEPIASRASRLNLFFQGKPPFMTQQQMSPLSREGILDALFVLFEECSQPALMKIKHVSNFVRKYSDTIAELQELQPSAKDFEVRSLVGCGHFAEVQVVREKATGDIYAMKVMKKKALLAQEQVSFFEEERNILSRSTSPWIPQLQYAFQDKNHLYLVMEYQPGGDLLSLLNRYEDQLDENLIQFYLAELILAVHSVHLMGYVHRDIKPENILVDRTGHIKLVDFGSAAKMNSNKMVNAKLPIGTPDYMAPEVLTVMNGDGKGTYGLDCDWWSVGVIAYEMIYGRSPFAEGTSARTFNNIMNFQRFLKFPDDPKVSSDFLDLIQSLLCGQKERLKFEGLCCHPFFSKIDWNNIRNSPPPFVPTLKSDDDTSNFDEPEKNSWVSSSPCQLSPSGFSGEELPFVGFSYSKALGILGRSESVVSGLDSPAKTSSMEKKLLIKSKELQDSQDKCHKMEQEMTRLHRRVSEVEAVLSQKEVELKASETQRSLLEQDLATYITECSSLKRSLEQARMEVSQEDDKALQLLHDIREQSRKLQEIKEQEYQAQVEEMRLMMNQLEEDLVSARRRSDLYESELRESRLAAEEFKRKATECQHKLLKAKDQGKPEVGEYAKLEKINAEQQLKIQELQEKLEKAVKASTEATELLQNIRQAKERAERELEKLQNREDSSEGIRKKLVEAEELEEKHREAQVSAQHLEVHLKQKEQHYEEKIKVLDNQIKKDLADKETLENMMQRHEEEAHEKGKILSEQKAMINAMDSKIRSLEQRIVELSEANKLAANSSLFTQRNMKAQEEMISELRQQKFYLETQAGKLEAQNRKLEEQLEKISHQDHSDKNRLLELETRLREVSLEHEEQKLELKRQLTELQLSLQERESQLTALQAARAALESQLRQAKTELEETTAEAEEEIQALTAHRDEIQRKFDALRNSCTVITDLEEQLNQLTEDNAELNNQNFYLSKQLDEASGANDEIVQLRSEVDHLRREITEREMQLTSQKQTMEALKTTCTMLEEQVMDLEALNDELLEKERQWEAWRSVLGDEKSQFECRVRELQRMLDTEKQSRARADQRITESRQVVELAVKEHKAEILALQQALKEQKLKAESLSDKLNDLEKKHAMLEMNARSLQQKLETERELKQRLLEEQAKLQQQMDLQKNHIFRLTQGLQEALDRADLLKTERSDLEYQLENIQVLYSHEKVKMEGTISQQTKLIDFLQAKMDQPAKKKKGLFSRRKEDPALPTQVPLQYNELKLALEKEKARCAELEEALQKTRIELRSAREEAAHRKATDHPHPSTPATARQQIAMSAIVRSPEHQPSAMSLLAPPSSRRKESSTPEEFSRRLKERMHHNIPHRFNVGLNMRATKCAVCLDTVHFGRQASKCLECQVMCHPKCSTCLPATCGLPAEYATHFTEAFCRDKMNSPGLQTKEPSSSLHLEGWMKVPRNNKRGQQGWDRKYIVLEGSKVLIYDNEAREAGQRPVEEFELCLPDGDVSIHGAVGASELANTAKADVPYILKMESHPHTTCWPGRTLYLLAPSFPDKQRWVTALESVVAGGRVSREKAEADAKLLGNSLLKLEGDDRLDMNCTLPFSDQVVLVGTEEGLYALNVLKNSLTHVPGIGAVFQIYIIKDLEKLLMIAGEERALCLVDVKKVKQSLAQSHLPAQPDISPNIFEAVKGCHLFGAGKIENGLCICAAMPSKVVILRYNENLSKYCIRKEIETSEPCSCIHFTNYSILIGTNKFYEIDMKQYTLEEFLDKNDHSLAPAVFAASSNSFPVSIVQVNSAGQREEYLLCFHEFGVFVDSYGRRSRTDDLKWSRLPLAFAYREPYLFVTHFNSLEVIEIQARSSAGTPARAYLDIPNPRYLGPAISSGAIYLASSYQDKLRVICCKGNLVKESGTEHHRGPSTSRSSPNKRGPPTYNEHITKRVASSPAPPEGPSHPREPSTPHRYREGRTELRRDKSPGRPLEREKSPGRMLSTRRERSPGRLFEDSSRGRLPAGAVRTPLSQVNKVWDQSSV
T2 sequence (Q13464 whole entry): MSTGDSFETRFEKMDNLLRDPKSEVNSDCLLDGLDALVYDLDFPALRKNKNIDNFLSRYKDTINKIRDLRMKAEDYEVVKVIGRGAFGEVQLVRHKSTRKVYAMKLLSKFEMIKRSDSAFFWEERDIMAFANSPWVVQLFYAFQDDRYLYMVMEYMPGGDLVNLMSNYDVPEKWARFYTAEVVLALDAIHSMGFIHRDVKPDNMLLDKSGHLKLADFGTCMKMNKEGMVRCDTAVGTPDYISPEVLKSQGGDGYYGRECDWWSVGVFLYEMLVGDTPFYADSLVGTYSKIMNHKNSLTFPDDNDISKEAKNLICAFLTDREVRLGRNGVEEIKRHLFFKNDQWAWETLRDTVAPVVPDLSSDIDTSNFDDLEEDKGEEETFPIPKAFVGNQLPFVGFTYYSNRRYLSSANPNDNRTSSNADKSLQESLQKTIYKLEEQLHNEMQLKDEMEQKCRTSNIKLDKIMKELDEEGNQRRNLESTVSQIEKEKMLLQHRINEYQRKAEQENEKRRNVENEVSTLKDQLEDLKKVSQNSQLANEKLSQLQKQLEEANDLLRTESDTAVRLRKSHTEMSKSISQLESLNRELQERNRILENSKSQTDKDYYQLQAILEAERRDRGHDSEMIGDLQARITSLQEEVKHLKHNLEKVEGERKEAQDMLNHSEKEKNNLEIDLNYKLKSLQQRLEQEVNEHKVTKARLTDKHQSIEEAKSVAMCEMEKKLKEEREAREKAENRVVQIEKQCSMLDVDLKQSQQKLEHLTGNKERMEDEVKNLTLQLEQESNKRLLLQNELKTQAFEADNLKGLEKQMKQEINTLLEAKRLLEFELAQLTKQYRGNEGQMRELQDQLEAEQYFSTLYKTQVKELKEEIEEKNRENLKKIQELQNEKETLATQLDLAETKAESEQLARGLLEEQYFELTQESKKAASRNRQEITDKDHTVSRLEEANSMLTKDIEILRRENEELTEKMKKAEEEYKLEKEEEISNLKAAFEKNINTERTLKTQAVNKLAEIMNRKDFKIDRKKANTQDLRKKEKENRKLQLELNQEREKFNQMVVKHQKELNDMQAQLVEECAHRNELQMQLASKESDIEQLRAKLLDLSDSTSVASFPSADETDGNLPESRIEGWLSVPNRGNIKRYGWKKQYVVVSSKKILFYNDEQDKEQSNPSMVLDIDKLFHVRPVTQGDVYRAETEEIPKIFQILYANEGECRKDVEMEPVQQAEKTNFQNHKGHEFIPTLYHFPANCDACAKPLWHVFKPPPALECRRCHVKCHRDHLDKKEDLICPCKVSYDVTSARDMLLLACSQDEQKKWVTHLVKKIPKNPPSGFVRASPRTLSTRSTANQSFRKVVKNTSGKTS

As to `C[C@@H]1CN(C)CC[C@@H]1c1cc(-c2ccncc2)c(-c2ccc(F)cc2)[nH]1.Cl.Cl` [RUPB-61, 4-{5-[(3S,4S)-1,3-Dimethylpiperidin-4-yl]-2-(4-fluorophenyl)-1H-pyrrol-3-yl}pyridine Dihydrochloride], the “human half-life range by allometric scaling” value in series [1] (exponent 0.25, mouse 0.025 kg, human 70 kg) was in the range of 67.5 to 90 h. For the same compound, in series [1] (humans, scaled from mouse oral half-life), the “half-life in humans by allometric scaling” value lay in the range of 48 to 96 h. Also, the plasma exposure maintained in series [1] (mice, 10 mg/kg, for 24 h) is > 100 nM. Further, in series [1] (mice, IV 10 mg/kg, average of 3 mice, 10 mg/kg), the Vss obs was determined as 47.29 L/kg. Moreover, the Bioavailability in series [1] (mice, PO vs IV 10 mg/kg, 10 mg/kg) is on record as 91 %F. Moreover, in series [1] (setting [3]), the AUC(0-t) (in general, exposure summed from dosing to a finite time, without extrapolation to infinity) was 7.43 µM·h and the half-life (as a rule, how long it takes for the measured level to halve) was 11.8 h. For the same compound, the AUC(0-inf) in series [1] (mouse, plasma, iv, 10 mg/kg, mice, IV 10 mg/kg, average of 3 mice, read-out: AUC INF_obs) came to 9.8 µM·h. Also, the clearance in series [1] (mouse, plasma, iv, 10 mg/kg, mice, IV 10 mg/kg, average of 3 mice, read-out: Cl_obs) came out at 49.2 mL/min/kg. The Vd in series [1] (mouse, plasma, iv, 10 mg/kg, mice, IV 10 mg/kg, average of 3 mice, read-out: Vss obs) worked out at 47.3 L/kg. In addition, in series [1] (mouse, plasma, other: oral and intravenous, 10 mg/kg, mice, 10 mg/kg oral and intravenous, read-out: relative clearance), the clearance was ~50 mL/min/kg. Further, in series [1] (setting [4]), the peak level (Cmax) was 630 nM and the Tmax (usually the time at which the peak concentration occurs) came out at 4.17 h. Moreover, the AUC(0-inf) in series [1] (mouse, plasma, po, 10 mg/kg, mice, PO 10 mg/kg, average of 3 mice, read-out: AUCINF_obs) was determined as 8.9 µM·h. Further, the “displacement of control ligand for CIT” value at CIT is reported as > 99%. Moreover, the “displacement of control ligand for ROCK1” value on ROCK1 is given as > 99%. On ROCK2, the “displacement of control ligand for ROCK2” value is on record as > 99%. The “increase in IC50 against Thr618Gln gatekeeper mutant parasites” value in series [2] is reported as 15 fold. Further, the “cardiovascular risk as judged by hERG inhibition” value in the series with hERG is given as “low preliminary cardiovascular risks”.

The record behind these values is article PMC13422867, “An orally available PfPKG inhibitor blocks Plasmodium’s infection of the liver” (PLOS Pathogens, 2026).
